Measured values as given in patent US20240391885A1, “FORMS OF LINERIXIBAT” (GLAXOSMITHKLINE INTELLECTUAL PROPERTY (NO. 2) LIMITED, priority 2020, published 2024).
In brackets after ≈: the same amount, converted by molar mass.

Legend:
Type in all cases: physicochemical
[1] = Polymorph screen, relative stability of forms; details: relative to the other forms identified from the form screen
Method: Form I of linerixibat, a non-solvated crystalline form that melts with decomposition at onset temperature about 206° C. and peak temperature about 209° C., was identified as the predominant form of linerixibat from a polymorph screen study. Amorphous linerixibat and Form I were used as input material for polymorph screen experiments. […] Form I was obtained from a variety of screening samples, and the solvents used include water, methanol, ethanol, acetone, acetonitrile and ethyl acetate.

[2] = Miniaturised shake flask solubility in Britton-Robinson buffers and biorelevant media (Experiment 8c); details: 37° C., 1, 4 and 24 hours; FIG. 25
Method: Solubility of Form I and Form III was also measured in Britton-Robinson buffers (pH 2-8), determined and compared using a standardised miniaturised shake flask method via an automated platform using a development HPLC method for quantification post centrifugation and filtration. Samples were run at 37° C. and performed as 2 replicate preparations for each pH condition and 4 replicate preparations for each biorelevant media condition at 1, 4 and 24 hours.

[3] = Solubility of linerixibat drug substance over pH 1.2-6.8 at 37±1° C. (Experiment 8a); details: for solubility at 1 h / solubility at 4 h / solubility at 24 h: 37 °C, thermodynamic from solid; for solubility at 1 h: 1-hr timepoint; for solubility at 4 h: 4-hr timepoint; for solubility at 24 h: 24-hr timepoint
Method: The solubility of linerixibat drug substance, in respect of Form I and Form III, was determined over the pH range of 1.2-6.8 at 37±1° C. Eight pH values within this range, including buffers at pH 1.2, 4.5 and 6.8 were evaluated. The therapeutic dose for linerixibat is 40 mg.
• SGF=simulated gastric fluid • BR=Britton Robinson

[4] = Solubility of drug substance samples in biorelevant media and sodium acetate buffer (Experiment 8b); details: for solubility at 1 h / solubility at 4 h / solubility at 24 h: thermodynamic from solid
Excerpt: Solubility data was obtained for drug substance samples of linerixibat Form I, linerixibat Form III, and additionally for a sample of Form I compressed to 100 MPa which therefore contained an amount of Form III, in order to replicate typical forces encountered during tablet manufacture.
The media used for the drug substance samples were biorelevant media likely to be experienced in the stomach and the intestine, namely Simulated Gastric Fluid (SGF) over an increasing pH range (1.6, 2.0 and 4.0) and Fasted State Simulated Intestinal Fluid (FaSSIF) at a pH of 6.5. Solubility data was also obtained in 50 mM sodium acetate buffer pH 4.5.

[5] = Conversion of Form I to Form III under mechanical stress / tablet compression (13C SSNMR, XRPD); details: one manufacturing batch of Form I after the final (agitated) drying step; qualitative assessment by 13C SSNMR and XRPD
Excerpt: Upon investigation, this occurrence was attributed to a combination of a relatively large batch size in a smaller filter drier (agitated drying stage) resulting in the wet material being subjected to greater shear forces during agitation, causing some conversion of Form I to Form III. Conversion of Form I to Form III was also observed during tablet compression process. […] During formulation development, samples of the linerixibat compression blend were compacted in a device to mimic the full-scale tableting process. X-ray powder diffractograms (XRPD) were obtained on these “compacts.” As the compression force was increased, the XRPD pattern changed to give loss of intensity of some peaks and formation of other peaks. This indicated the presence of another solid state form, which was subsequently confirmed as Form III. […] The intensities of Form I and Form III peaks in the ^13C SSNMR spectrum qualitatively indicate similar populations of the two polymorphic forms in the sample of mixture. The ^13C SSNMR data were acquired using the same apparatus and conditions as Example 1e.
^13C SSNMR data for linerixibat tablets, 90 mg of Form I compressed with different forces to achieve three different tensile strengths 1.6 MPa, 2.4 MPa and 3.2 MPa, were collected. The ^13C SSNMR data were acquired using the same apparatus and conditions as Example 1e. […]

[6] = Britton Robinson buffer, pH 3, aqueous buffer, nominal pH 3.0, BR buffer
[7] = Britton Robinson buffer, pH 3.5, aqueous buffer, nominal pH 3.5, BR buffer
[8] = Britton Robinson buffer, pH 3.8, aqueous buffer, nominal pH 3.8, BR buffer
[9] = Britton Robinson buffer, pH 4, aqueous buffer, nominal pH 4.0, BR buffer
[10] = Britton Robinson buffer, pH 5, aqueous buffer, nominal pH 5.0, BR buffer
[11] = acetate buffer, pH 4.5, aqueous buffer, nominal pH 4.5, Acetate buffer
[12] = phosphate buffer, pH 6.8, aqueous buffer, nominal pH 6.8, Phosphate buffer
[13] = simulated gastric fluid (SGF), pH 1.2, simulated gastric fluid, nominal pH 1.2, SGF

CCCC[C@]1(CC)CS(=O)(=O)c2cc(CNC(CC(=O)O)CC(=O)O)c(OC)cc2[C@@H](c2ccccc2)N1 [Form I]
relative stability of the form [1]: most stable form | solubility comparison in biorelevant media [2]: very similar | solubility at 1 h [3, 6]: 178 µg/mL (≈ 326 µM) | solubility at 4 h [3, 6]: 198 µg/mL (≈ 362 µM) | solubility at 24 h [3, 6]: 232 µg/mL (≈ 424 µM) | solubility at 1 h [3, 7]: 99 µg/mL (≈ 181 µM) | solubility at 4 h [3, 7]: 110 µg/mL (≈ 201 µM) | solubility at 24 h [3, 7]: 128 µg/mL (≈ 234 µM) | solubility at 1 h [3, 8]: 104 µg/mL (≈ 190 µM) | solubility at 4 h [3, 8]: 113 µg/mL (≈ 207 µM) | solubility at 24 h [3, 8]: 131 µg/mL (≈ 240 µM) | solubility at 1 h [3, 9]: 118 µg/mL (≈ 216 µM) | solubility at 4 h [3, 9]: 125 µg/mL (≈ 229 µM) | solubility at 24 h [3, 9]: 146 µg/mL (≈ 267 µM) | solubility at 1 h [3, 10]: 393 µg/mL (≈ 719 µM) | solubility at 4 h [3, 10]: 491 µg/mL (≈ 898 µM) | solubility at 24 h [3, 10]: 650 µg/mL (≈ 1190 µM) | solubility at 1 h [3, 11]: 190 µg/mL (≈ 348 µM) | solubility at 4 h [3, 11]: 214 µg/mL (≈ 391 µM) | solubility at 24 h [3, 11]: 293 µg/mL (≈ 536 µM) | solubility classification ([3]; all pHs in the physiological range except close to the solubility minimum (between pH 3.2 and pH 4.2), high solubility = above 0.16 mg/mL (40 mg in 250 mL)): highly soluble | difference in solubility between Form I and Form III ([3]; pH 1.2-6.8, 37±1° C.): no significant difference | solubility at 1 h [3, 12]: > 1000 µg/mL | solubility at 4 h [3, 12]: > 1000 µg/mL | solubility at 24 h [3, 12]: > 1000 µg/mL | solubility at 1 h [3, 13]: > 1000 µg/mL | solubility at 4 h [3, 13]: > 1000 µg/mL | solubility at 24 h [3, 13]: > 1000 µg/mL | solubility at 1 h ([4]; 50 mM sodium acetate buffer, pH 4.5, aqueous buffer, 50 mM Sodium Acetate Buffer pH 4.5, 1 Hour): 270 µg/mL (≈ 494 µM) | solubility at 4 h ([4]; 50 mM sodium acetate buffer, pH 4.5, aqueous buffer, 50 mM Sodium Acetate Buffer pH 4.5, 4 Hours): 280 µg/mL (≈ 512 µM) | solubility at 24 h ([4]; 50 mM sodium acetate buffer, pH 4.5, aqueous buffer, 50 mM Sodium Acetate Buffer pH 4.5, 24 Hours): 300 µg/mL (≈ 549 µM) | solubility at 1 h ([4]; Fasted State Simulated Intestinal Fluid (FaSSIF), pH 6.5, fassif, FaSSIF pH 6.5, 1 Hour): 5080 µg/mL (≈ 9290 µM) | solubility at 4 h ([4]; Fasted State Simulated Intestinal Fluid (FaSSIF), pH 6.5, fassif, FaSSIF pH 6.5, 4 Hours): 5110 µg/mL (≈ 9350 µM) | solubility at 24 h ([4]; Fasted State Simulated Intestinal Fluid (FaSSIF), pH 6.5, fassif, FaSSIF pH 6.5, 24 Hours): 5310 µg/mL (≈ 9710 µM) | solubility at 1 h ([4]; Simulated Gastric Fluid (SGF), pH 1.6, simulated gastric fluid, SGF pH 1.6, 1 Hour): 7200 µg/mL (≈ 13200 µM) | solubility at 4 h ([4]; Simulated Gastric Fluid (SGF), pH 1.6, simulated gastric fluid, SGF pH 1.6, 4 Hours): 7390 µg/mL (≈ 13500 µM) | solubility at 24 h ([4]; Simulated Gastric Fluid (SGF), pH 1.6, simulated gastric fluid, SGF pH 1.6, 24 Hours): 7910 µg/mL (≈ 14500 µM) | solubility at 1 h ([4]; Simulated Gastric Fluid (SGF), pH 2, simulated gastric fluid, SGF pH 2.0, 1 Hour): 1490 µg/mL (≈ 2730 µM) | solubility at 4 h ([4]; Simulated Gastric Fluid (SGF), pH 2, simulated gastric fluid, SGF pH 2.0, 4 Hours): 1530 µg/mL (≈ 2800 µM) | solubility at 24 h ([4]; Simulated Gastric Fluid (SGF), pH 2, simulated gastric fluid, SGF pH 2.0, 24 Hours): 1620 µg/mL (≈ 2960 µM) | solubility at 1 h ([4]; Simulated Gastric Fluid (SGF), pH 4, simulated gastric fluid, SGF pH 4.0, 1 Hour): 150 µg/mL (≈ 274 µM) | solubility at 4 h ([4]; Simulated Gastric Fluid (SGF), pH 4, simulated gastric fluid, SGF pH 4.0, 4 Hours): 150 µg/mL (≈ 274 µM) | solubility at 24 h ([4]; Simulated Gastric Fluid (SGF), pH 4, simulated gastric fluid, SGF pH 4.0, 24 Hours): 160 µg/mL (≈ 293 µM) | solubility comparison of the forms ([4]; all investigated physiologically relevant pH values (1.6 to 6.5)): Forms I and III have very similar solubilities at all investigated physiologically | Form III content [5]: ≤ 10 % w/w
